Assay results as given in patent US7368286B2, “Method and device for identifying substances capable of modulating adipocyte differentiation” (Genfit, priority 2002, dated 2008).

Tested on: aP2 and PPAR GAMMA receptor mRNA in 3T3-L1 cells
Assay: Northern blot of adipocyte markers in 3T3-L1 cells infected with MFG-Neo or MFG-REV retrovirus
Assay type: cell-based
Settings: control cells (MFG-Neo)
Method: 3T3-L1 cells were infected with either MFG-Neo or MFG-REV retrovirus and treated for 8 days with a mixture containing IBMX and insulin (“Mix”), with or without 1 μM rosiglitazone. mRNA was then extracted and analyzed by Northern blot using the indicated probes.
RNA extraction and Northern blot analyses were carried out according to the previously described method (Staels, B. et al., Arteriosclerosis and Thrombosis 1992, 12(3): 286-294) using rat Rev-erb alpha, murine PPAR gamma and murine aP2, chicken beta-actin and human 36B4 cDNA probes.
Cells post-confluent after two days of culture (designated day D0) were transferred to differentiation medium (DMEM, 10% FCS, 1 μM dexamethasone, 10 μg/ml insulin and 0.5 mM 3-methyl-1-isobutylxanthine (IBMX) (Sigma, St Louis, Mo., USA)) for two days. Cells were then grown in post-differentiation medium (DMEM, 10% FCS, insulin) with or without rosiglitazone. The medium was changed every day. Stable 3T3-L1 pre-adipocytes expressing the REV-ERB ALPHA receptor were grown in the same conditions but differentiated without dexamethasone. After the treatment, cells were fixed with 10% formaldehyde in PBS and stained with Oil Red O (Sigma, St Louis, Mo., USA). Alternatively, total RNA was extracted as described earlier.
3T3-L1 pre-adipocytes were then infected with the resulting virus. […]

CN(CCOc1ccc(CC2SC(=O)NC2=O)cc1)c1ccccn1 (stereo not shown) [rosiglitazone]
time until high aP2 and PPAR GAMMA receptor mRNA levels were observed: 8 to 12 days
